Data as given in US6426105B1, “Use of lysophosphatidylethanolamine (18.1) and lysophosphatidylinositol to retard senescence and to enhance fruit ripening” (Wisconsin Alumni Research Foundation, priority 1997, dated 2002).

Tests used:
[1] = system: partially purified cabbage PLD; assay: Partially purified cabbage PLD activity assay (PEOH release from PC); conditions: for Effect of components of the LPE molecule on PLD activity: FIG. 2; for Effect of different lysophospholipids on PLD activity: FIG. 5
cranberry fruits = assay: Ethylene production of postharvest cranberry fruits after LPE dip; assay type: in vivo, Vaccinium macrocarpon Ait. 'Stevens'; conditions: for Ethylene production, Relative %: 100 μM, control = 100
Experimental: However, the impact of different acyl chains of LPE on fruit senescence has not been investigated. In the present study, complementary to the effect of different acyl chains of LPE on PLD activity, the inventors investigated the effect of different acyl chains of LPE on ethylene production of cranberry fruits. Fully ripened cranberry fruits (Vaccinium macrocarpon Ait. 'Stevens') were harvested during the fall season and kept in a cold room. […] After two days, berries were incubated in a sealed glass jar for 24 hours in order to measure ethylene production. Ethylene was quantified with a gas chromatograph equipped with a flame ionization detector (Shinadzu 9AM, Shimadzu Corporation, Kyoto, Japan) (3).

[2] = system: membrane-associated cabbage PLD; assay: Membrane-associated PLD activity, cabbage leaf extract; assay type: biochemical, cabbage (Brassica oleracea L. Blue Vintage)
[3] = system: carnation flowering spikes; assay: Vase life of cut carnation flowers; conditions: 25 mg/L; control 27.5 ± 3.3; Mean ± SE
[4] = system: membrane-associated castor bean PLD
soluble cabbage PLD = assay: Soluble PLD activity, cabbage leaf extract (radio-labeled PC); assay type: biochemical, cabbage (Brassica oleracea L. Blue Vintage)
[5] = system: snapdragon flowering spikes; assay: Vase life and senescence of cut snapdragon spikes; conditions: for Spikes with Wilted Flower Florets after 7 days (% of total): 24 hr; for Spikes with Wilted Flower Florets after 7 days (% of total) / Water Content of Leaf after 18 days (Fresh wt/Dry wt): Mean ± SE; for Water Content of Leaf after 18 days (Fresh wt/Dry wt): control 5.79 ± 0.18; for Vase Life of Spikes (Days when > 50% of spikes remained marketable): control 4; for Leaf water content of spikes: 18 days after treatment; for spikes wilted after 7 days of treatment: range over tested concentrations, control 76%
tomato fruits = assay: Retardation of senescence of harvested mature green tomato fruits; assay type: in vivo, Lycopersicon esculentum cv. H9144; conditions: for Ethylene Production after 7 days / Rotten fruits after 3 weeks (% of total): 100 mg/L in 1% ethanol, 20 min dip; for Ethylene Production after 7 days: control 1.26 ± 0.21, Mean ± SE; for Rotten fruits after 3 weeks (% of total): control 37.2; for ethylene production relative to control: 7 days after treatment
Experimental: Mature green fruits of tomato (Lycopersicon esculentum cv. […]) were harvested from three month old plants. […] The control tomatoes were dipped in distilled water containing 1% ethol. After dipping, the fruits were stored at room temperature for 3 weeks. Production of ethylene gas was measured 7 days after treatment.

tomato plants/fruits = assay: Enhancement of tomato fruit ripening and stability by preharvest spray; assay type: in vivo, Tomato plants cv. H9478; conditions: 100 mg/L spray 10 days before harvest; for At Harvest, Partial Red fruits (weight % of total): control 13.2; for At Harvest, Green fruits (weight % of total): control 33.2; for 3 Weeks After Harvest, Soft Fruits (non marketable) (weight % of total): control 47.8; for At Harvest, Red fruits (weight % of total): control 53.6
Experimental: This experiment was conducted to compare the effects of […] (18:1) and LPI on fruit ripening. Tomato plants cv. […] were grown in pots for two and one-half months under fluorescent lights. […] All solutions contained 1% ethol and 0.05% […] 309 (Dow Corning Co., Midland, Mich.) as activating agents. Control plants received distilled water containing 1% ethanol and 0.05% […] 309. Fruits were harvested 10 days after treatment and graded into green, partial red, and red (indicating full ripening). […] (see Table 7).

senescing leaves = assay: Leaf chlorophyll content after eight day senescence; assay type: in vivo; conditions: after eight day senescence (FIG. 6)
Experimental: To evaluate the relative efficacy of various species of lysophospholipids in delaying senescence in leaves, treatment solutions containing lysophosphatidic acid (LPA), lysophosphatidylcholine (LPC),LPE, LPI, or water were applied to leaves. The chlorophyll content of each sample was measured by standard methods (10) after an eight day senescence. The relative chlorophyll contents were expressed as the percentage of the control.

tomato leaves = assay: Retardation of ethephon-induced leaf senescence in tomato plants; assay type: in vivo, Tomato plants cv. H9144; conditions: ethephon 1000 mg/L ± lysophospholipid 50 mg/L spray; 10 to 14 days after treatment; Mean ± SE
Experimental: Ethephon, also known as Ethrel, (Ethrel is a trademark of Rhone-Poulenc Ag. Co. (Research Triangle Park, N.C.)) is an aqueous formulation that decomposes to ethylene and is used widely to maximize the yield of ripe tomato fruits in once-over harvesting operations. […] Tomato plants cv. H9144 were grown in a greenhouse for two and a half months to serve as sources of leaf samples. Plant were sprayed to runoff with ethephon at 1000 mg/L or with ethephon plus lysophospholipid mixtures as shown below in Table 6. Lysophospholipid solutions at 50 mg/L were prepared in 1% (v/v) ethanol and mixed with ethephon (1000 mg/L). Control plans were sprayed with ethephon alone in 1% (v/v) ethanol. Senescence of treated leaves was quantified 10 to 14 days after treatment by measuring chlorophyll and protein content.

[6] = 200 μM, PC substrate (FIG. 1, 2, 5)

CCCCCCCC/C=C\CCCCCCCC(=O)O [18:1 fatty acid]
Effect of components of the LPE molecule on PLD activity [1]: no inhibitory effect

lysophosphatidylglycerol [LPG]
Effect of different lysophospholipids on PLD activity [1]: did not significantly affect

CCCCCCCCCCCCCCCC(=O)OCC(O)COP(=O)(O)OCCN (stereo not shown) [LPE16:0]
Ethylene production, Relative % (cranberry fruits): 92.7%

lysophosphatidic acid [LPA]
PLD activity, % of the control [1, 6]: 169%
Effect of different lysophospholipids on PLD activity [1]: significantly increased PLD activity

CCCCCCCC/C=C\CCCCCCCC(=O)OCC(O)COP(=O)(O)OCCN (stereo not shown) [LPE (18:1), lysophosphatidylethanolamine (18:1)]
Ratio (LPE/Control), Membrane-associated PLD, Cabbage ([2]; 200 μM): 0.59
Membrane-associated PLD activity, Cabbage ([2]; 200 μM, control 368.8 ± 6.5, mean ±SE): 217.0 ± 13.0 nmol min^−1 mg^−1 protein
Specific activity of membrane-associated cabbage PLD, % of the control ([2]; in the presence of LPE (18:1)): 59%
Soluble castor bean PLD activity, % of the control (soluble castor bean PLD): 30%
Ratio (LPE/Control), Soluble PLD, Castor Bean (soluble castor bean PLD; 200 μM): 0.30
Soluble PLD activity, Castor Bean (soluble castor bean PLD; 200 μM): 3.1 ± 0.1 nmol min^−1 mg^−1 protein
Marketable Flowers after 6 days of treatment (% of total) [3]: 41.7 ± 8.3 % of total
Membrane-associated castor bean PLD activity, % of the control [4]: 31%
Membrane-associated PLD activity, Castor Bean ([4]; 200 μM): 47.0 ± 3.6 nmol min^−1 mg^−1 protein
Ratio (LPE/Control), Membrane-associated PLD, Castor Bean ([4]; 200 μM): 0.31
Ratio (LPE/Control), Soluble PLD, Cabbage (soluble cabbage PLD; 200 μM): 0.51
Soluble PLD activity, Cabbage (soluble cabbage PLD; 200 μM, control 45.2 ± 3.5, mean ±SE): 23.1 ± 1.6 nmol min^−1 mg^−1 protein
Specific activity of soluble cabbage PLD, % of the control (soluble cabbage PLD; in the presence of LPE (18:1)): 51%
Spikes with Wilted Flower Florets after 7 days (% of total) ([5]; 5 mg/L, control 75.5 ± 10.3): 34.5 ± 5.5 % of total
Water Content of Leaf after 18 days (Fresh wt/Dry wt) ([5]; 5 mg/L): 7.81 ± 0.22 Fresh wt/Dry wt
Spikes with Wilted Flower Florets after 7 days (% of total) ([5]; 10 mg/L): 30.0 ± 5.5 % of total
Vase Life of Spikes (Days when > 50% of spikes remained marketable) ([5]; 10 mg/L): 12 days
Spikes with Wilted Flower Florets after 7 days (% of total) ([5]; 25 mg/L): 38.7 ± 8.5 % of total
Leaf water content of spikes [5]: higher than that of LPEegg and water-treated spikes
spikes wilted after 7 days of treatment [5]: 30-39%
Ethylene Production after 7 days (tomato fruits): 0.70 ± 0.20 nl/g. hr^1
Rotten fruits after 3 weeks (% of total) (tomato fruits): 7.7 % of total
ethylene production relative to control (tomato fruits): about half of the control
PLD activity, % of the control ([1]; 10 μM (FIG. 3)): 50%
PLD activity, % of the control ([1]; 40 μM, PC substrate (FIG. 1)): 16%
PLD activity, % of the control [1, 6]: 11%
Vmax ([1]; in the presence of LPE (18:1), control Vmax 20.0): 2.9 μmol min^−1 mg^−1 protein
Km ([1]; read-out: apparent Km for PLD, in the presence of LPE, substrate PC (FIG. 4)): 1700 µM
Type of PLD inhibition ([1]; substrate concentration varied (FIG. 4)): non-competitive inhibition
Ethylene production, Relative % (cranberry fruits): 59.6%
decrease in ethylene production (cranberry fruits; 2 days after treatment): 40%
At Harvest, Partial Red fruits (weight % of total) (tomato plants/fruits): 11.7 weight % of total
At Harvest, Green fruits (weight % of total) (tomato plants/fruits): 22.9 weight % of total
3 Weeks After Harvest, Soft Fruits (non marketable) (weight % of total) (tomato plants/fruits): 33.0 weight % of total
At Harvest, Red fruits (weight % of total) (tomato plants/fruits): 65.4 weight % of total

lysophosphatidylserine [LPS]
Effect of different lysophospholipids on PLD activity [1]: did not significantly affect

CCCCCCCCCCCCCCCCCC(=O)OCC(O)COP(=O)(O)OCCN (stereo not shown) [LPE18:0]
Ethylene production, Relative % (cranberry fruits): 71.3%

phosphatidylethanolamine [PE]
PLD activity, % of the control [1, 6]: 126%

Lysophosphatidylcholine [LPC]
Effect of different lysophospholipids on PLD activity [1]: did not significantly affect

NCCO [ethanolamine]
Effect of components of the LPE molecule on PLD activity [1]: no inhibitory effect

lysophosphatidylinositol [LPI]
Marketable Flowers after 6 days of treatment (% of total) [3]: 44.2 ± 8.3 % of total
chlorophyll content of senescing leaves (senescing leaves): much higher than leaves treated with LPA, LPC or LPEegg
Spikes with Wilted Flower Florets after 7 days (% of total) ([5]; 5 mg/L, control 75.5 ± 10.3): 21.6 ± 7.0 % of total
Water Content of Leaf after 18 days (Fresh wt/Dry wt) ([5]; 5 mg/L): 7.57 ± 0.52 Fresh wt/Dry wt
Spikes with Wilted Flower Florets after 7 days (% of total) ([5]; 10 mg/L): 15.0 ± 11.5 % of total
Vase Life of Spikes (Days when > 50% of spikes remained marketable) ([5]; 10 mg/L): 13 days
Spikes with Wilted Flower Florets after 7 days (% of total) ([5]; 25 mg/L): 17.8 ± 7.5 % of total
Leaf water content of spikes [5]: higher than that of LPEegg and water-treated spikes
spikes wilted after 7 days of treatment [5]: 15-22%
Ethylene Production after 7 days (tomato fruits): 0.71 ± 0.40 nl/g. hr^1
Rotten fruits after 3 weeks (% of total) (tomato fruits): 17.5 % of total
ethylene production relative to control (tomato fruits): about half of the control
PLD activity, % of the control [1, 6]: 31%
Effect of different lysophospholipids on PLD activity [1]: inhibitory effects somewhat similar to those of LPE
At Harvest, Partial Red fruits (weight % of total) (tomato plants/fruits): 11.7 weight % of total
At Harvest, Green fruits (weight % of total) (tomato plants/fruits): 18.3 weight % of total
3 Weeks After Harvest, Soft Fruits (non marketable) (weight % of total) (tomato plants/fruits): 25.6 weight % of total
At Harvest, Red fruits (weight % of total) (tomato plants/fruits): 70.1 weight % of total

CCCCCCCCCCCCCC(=O)OCC(O)COP(=O)(O)OCCN (stereo not shown) [LPE 14:0]
Effect on PLD activity ([1]; 40 and 200 μM, LPE with different acyl chains (FIG. 1)): very little effect
Ethylene production, Relative % (cranberry fruits): 100.0%

O=P(O)(O)CCCl [Ethephon (E), ethephon]
Chlorophyll Content (tomato leaves): 3.65 ± 0.25 mg/g dry wt
Protein Content (tomato leaves): 58.8 ± 14.7 mg/g dry wt
